This assay has as its system ATF4 luciferase reporter (human full-length ATF4 5'-UTR fused to firefly luciferase) in HEK293T cells. Nature of the assay: ATF4-Luc assay (in vitro model of VWMD): HEK293T cells carrying ATF4 luciferase reporter, tunicamycin-treated. In kind it is cell-based. Conditions: Homo sapiens, HEK-293T, 1 μg/mL tunicamycin, 7 hours, One Glo luminescence. In outline:
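Stable HEK293T line with human ATF4 5′-UTR–firefly luciferase reporter treated with 1 μg/mL tunicamycin plus 200 nM compound for 7 h. Luminescence read; EC50 derived.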
For orientation: A reporter such as luciferase makes a cellular process visible.

Where only a bound is given, the exact number is not on record here.

What is called EC50 is the midpoint of the concentration-response curve. For the compound `O=C(NC12CC(NC(=O)[C@H]3CC(=O)c4cc(Cl)ccc4O3)(C1)C2)c1ccc(OC(F)(F)F)cn1` [Compound 379, N-(3-{[(2R)-6-chloro-4-oxo-3,4-dihydro-2H-1-benzopyran-2-carbonyl]amino}bicyclo[1.1.1]pentan-1-yl)-5-(trifluoromethoxy)pyridine-2-carboxamide], the EC50 is 500 to 2000 nM. Under `O=C(NC12CC(NC(=O)[C@H]3C[C@@H](O)c4cc(Cl)ccc4O3)(C1)C2)c1cnn([C@H]2C[C@@H](OC(F)(F)F)C2)c1` [Compound 381, N-(3-{[(2R,4R)-6-chloro-4-hydroxy-3,4-dihydro-2H-1-benzopyran-2-carbonyl]amino}bicyclo[1.1.1]pentan-1-yl)-1-[cis-3-(trifluoromethoxy)cyclobutyl]-1H-pyrazole-4-carboxamide] stands under 10 nM; under `Cc1cnc(C(=O)NC23CC(NC(=O)[C@H]4C[C@@H](O)c5cc(Cl)ccc5O4)(C2)C3)cn1` [Compound 382, N-(3-{[(2R,4R)-6-chloro-4-hydroxy-3,4-dihydro-2H-1-benzopyran-2-carbonyl]amino}bicyclo[1.1.1]pentan-1-yl)-5-methylpyrazine-2-carboxamide], 50 to 250 nM; under `O=C(NC12CC(NC(=O)[C@H]3C[C@@H](O)c4cc(Cl)ccc4O3)(C1)C2)c1cnc(C2CC2)o1` [Compound 383, N-(3-{[(2R,4R)-6-chloro-4-hydroxy-3,4-dihydro-2H-1-benzopyran-2-carbonyl]amino}bicyclo[1.1.1]pentan-1-yl)-2-cyclopropyl-1,3-oxazole-5-carboxamide], 50 to 250 nM. In the case of `CCc1ncc(C(=O)NC23CC(NC(=O)[C@H]4C[C@@H](O)c5cc(Cl)ccc5O4)(C2)C3)o1` [Compound 384, N-(3-{[(2R,4R)-6-chloro-4-hydroxy-3,4-dihydro-2H-1-benzopyran-2-carbonyl]amino}bicyclo[1.1.1]pentan-1-yl)-2-ethyl-1,3-oxazole-5-carboxamide] it was 50 to 250 nM; in that of `Cc1ncc(C(=O)NC23CC(NC(=O)[C@H]4C[C@@H](O)c5cc(Cl)ccc5O4)(C2)C3)s1` [Compound 385, N-(3-{[(2R,4R)-6-chloro-4-hydroxy-3,4-dihydro-2H-1-benzopyran-2-carbonyl]amino}bicyclo[1.1.1]pentan-1-yl)-2-methyl-1,3-thiazole-5-carboxamide], 50 to 250 nM. As to `O=C(NC12CC(NC(=O)[C@H]3C[C@@H](O)c4cc(Cl)ccc4O3)(C1)C2)c1ccccn1` [Compound 386, N-(3-{[(2R,4R)-6-chloro-4-hydroxy-3,4-dihydro-2H-1-benzopyran-2-carbonyl]amino}bicyclo[1.1.1]pentan-1-yl)pyridine-2-carboxamide], the EC50 fell in the range of 50 to 250 nM. In the case of `O=C(NC12CC(NC(=O)[C@H]3C[C@@H](O)c4cc(Cl)ccc4O3)(C1)C2)c1cnc(C2CCC2)o1` [Compound 387, N-(3-{[(2R,4R)-6-chloro-4-hydroxy-3,4-dihydro-2H-1-benzopyran-2-carbonyl]amino}bicyclo[1.1.1]pentan-1-yl)-2-cyclobutyl-1,3-oxazole-5-carboxamide], the EC50 fell in the range of 50 to 250 nM. Under `O=C(NC12CC(NC(=O)[C@H]3C[C@@H](O)c4cc(Cl)ccc4O3)(C1)C2)c1cnc(C2CN(CC(F)(F)F)C2)o1` [Compound 388, N-(3-{[(2R,4R)-6-chloro-4-hydroxy-3,4-dihydro-2H-1-benzopyran-2-carbonyl]amino}bicyclo[1.1.1]pentan-1-yl)-2-[1-(2,2,2-trifluoroethyl)azetidin-3-yl]-1,3-oxazole-5-carboxamide] stands 250 to 500 nM; under `O=C(NC12CC(NC(=O)[C@H]3C[C@@H](O)c4cc(Cl)ccc4O3)(C1)C2)c1cnc(C2CNC2)o1` [Compound 389, 2-(azetidin-3-yl)-N-(3-{[(2R,4R)-6-chloro-4-hydroxy-3,4-dihydro-2H-1-benzopyran-2-carbonyl]amino}bicyclo[1.1.1]pentan-1-yl)-1,3-oxazole-5-carboxamide], over 2000 nM. In the case of `O=C(NC12CC(NC(=O)[C@H]3C[C@@H](O)c4cc(Cl)ccc4O3)(C1)C2)c1cnn(-c2ccccc2)c1` [Compound 390, N-(3-{[(2R,4R)-6-chloro-4-hydroxy-3,4-dihydro-2H-1-benzopyran-2-carbonyl]amino}bicyclo[1.1.1]pentan-1-yl)-1-phenyl-1H-pyrazole-4-carboxamide], the EC50 lay within 10 to 50 nM.

As for `O=C(NC12CC(NC(=O)[C@H]3C[C@@H](O)c4cc(Cl)ccc4O3)(C1)C2)c1cnn(-c2ccc(Cl)c(F)c2)c1` [Compound 391, 1-(4-chloro-3-fluorophenyl)-N-(3-{[(2R,4R)-6-chloro-4-hydroxy-3,4-dihydro-2H-1-benzopyran-2-carbonyl]amino}bicyclo[1.1.1]pentan-1-yl)-1H-pyrazole-4-carboxamide], the EC50 is under 10 nM. Under `O=C(NC12CC(NC(=O)[C@H]3C[C@@H](O)c4cc(Cl)ccc4O3)(C1)C2)c1cnn(-c2ccc(C(F)(F)F)nc2)c1` [Compound 392, N-(3-{[(2R,4R)-6-chloro-4-hydroxy-3,4-dihydro-2H-1-benzopyran-2-carbonyl]amino}bicyclo[1.1.1]pentan-1-yl)-1-[6-(trifluoromethyl)pyridin-3-yl]-1H-pyrazole-4-carboxamide] stands 500 to 2000 nM.

These data come from patent US20240018133A1, “MODULATORS OF THE INTEGRATED STRESS PATHWAY” (Calico Life Sciences LLC, priority 2019, published 2024).
